Test results taken from patent publication US20210251963A1, “UREA DERIVATIVES FOR USE IN THE TREATMENT OF SUBJECTS WITH ELEVATED EXPRESSION AND/OR ACTIVITY OF SRPK1” (Scandion Oncology A/S, priority 2018, published 2021).

Legend:
Assay in all cases: Premier Screen kinase activity screening (33P ATP filter binding)
Assay type in all cases: biochemical
Conditions in all cases: 10 μM SCO-101, mean of assay duplicates, read-out: Kinase activity (percentage of DMSO control)
[1] = target: T1, ASK1 (Homo sapiens, UniProt Q99683)
T1 construct: purchased MRC in Dundee (Premier Screen service)
Procedure, shortened: (§1)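 Reported numbers are percent remaining kinase activity versus DMSO control (mean of duplicates, ± SD). They come from a radioactive 33P-ATP filter-binding assay run with 10 μM compound.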

[2] = target: T2, BTK (Homo sapiens, UniProt Q06187)
T2 construct: MRC in Dundee (screening service)
Procedure, shortened: as §1

[3] = target: T3, CAMK1 (Homo sapiens, UniProt Q14012)
T3 construct: purchased MRC in Dundee (Premier Screen service)
Procedure, shortened: as §1

[4] = target: T4, DYRK2 (Homo sapiens, UniProt Q92630)
T4 construct: purchased MRC in Dundee (Premier Screen service)
Procedure, shortened: as §1

[5] = target: T5, EPH-A2 (Homo sapiens, UniProt P29317)
T5 construct: purchased MRC in Dundee (Premier Screen service)
Procedure, shortened: as §1

[6] = target: T6, EPH-A4 (Homo sapiens, UniProt P54764)
T6 construct: MRC Dundee (screening service)
Procedure, shortened: as §1

[7] = target: T7, EPH-B4 (Homo sapiens, UniProt P54760)
T7 construct: MRC in Dundee (screening service)
Procedure, shortened: as §1

[8] = target: T8, ERK8 (Homo sapiens, UniProt Q8TD08)
T8 construct: MRC in Dundee (screening service)
Procedure, shortened: as §1

[9] = target: T9, HIPK2 (Homo sapiens, UniProt Q9H2X6)
T9 construct: purchased MRC in Dundee (Premier Screen service)
Procedure, shortened: as §1

[10] = target: IRAK1 (Homo sapiens, UniProt P51617)
Procedure, shortened: as §1

[11] = target: T10, MAP4K5 (Homo sapiens, UniProt Q9Y4K4)
T10 construct: purchased MRC Dundee, Premier Screen (contract screening service)
Procedure, shortened: as §1

[12] = target: T11, MAPKAP-K3 (Homo sapiens, UniProt Q16644)
T11 construct: MRC in Dundee (screening service)
Procedure, shortened: as §1

[13] = target: T12, MARK2 (Homo sapiens, UniProt Q7KZI7)
T12 construct: MRC Dundee (screening service)
Procedure, shortened: as §1

[14] = target: T13, MEKK1 (Homo sapiens, UniProt Q13233)
T13 construct: purchased MRC Dundee, Premier Screen (contract screening service)
Procedure, shortened: as §1

[15] = target: T14, MELK (Homo sapiens, UniProt Q14680)
T14 construct: MRC Dundee (screening service)
Procedure, shortened: as §1

[16] = target: T15, MKK2 (Homo sapiens, UniProt P36507)
T15 construct: MRC in Dundee (screening service)
Procedure, shortened: as §1

[17] = target: T16, MKK6 (Homo sapiens, UniProt P52564)
T16 construct: purchased MRC Dundee, Premier Screen (contract screening service)
Procedure, shortened: as §1

[18] = target: T17, MLK1 (Homo sapiens, UniProt P80192)
T17 construct: MRC Dundee (screening service)
Procedure, shortened: as §1

[19] = target: T18, MST2 (Homo sapiens, UniProt Q13188)
T18 construct: purchased MRC in Dundee (Premier Screen service)
Procedure, shortened: as §1

[20] = target: MST4 (Homo sapiens, UniProt Q9P289)
Procedure, shortened: as §1

[21] = target: T19, NUAK1 (Homo sapiens, UniProt O60285)
T19 construct: purchased MRC in Dundee (Premier Screen service)
Procedure, shortened: as §1

[22] = target: T20, PAK2 (Homo sapiens, UniProt Q13177)
T20 construct: MRC in Dundee (screening service)
Procedure, shortened: as §1

[23] = target: PAK5 (Homo sapiens, UniProt Q9P286)
Procedure, shortened: as §1

[24] = target: T21, PDK1 (Homo sapiens, UniProt O15530)
T21 construct: purchased MRC Dundee, Premier Screen (contract screening service)
Procedure, shortened: as §1

[25] = target: T22, PIM2 (Homo sapiens, UniProt Q9P1W9)
T22 construct: purchased MRC in Dundee (Premier Screen service)
Procedure, shortened: as §1

[26] = target: T23, PIM3 (Homo sapiens, UniProt Q86V86)
T23 construct: purchased MRC in Dundee (Premier Screen service)
Procedure, shortened: as §1

[27] = target: T24, PLK1 (Homo sapiens, UniProt P53350)
T24 construct: purchased MRC in Dundee (Premier Screen service)
Procedure, shortened: as §1

[28] = target: T25, ROCK 2 (Rattus norvegicus, UniProt Q62868)
T25 construct: MRC Dundee (screening service)
Procedure, shortened: as §1

[29] = target: T26, RSK2 (Homo sapiens, UniProt P51812)
T26 construct: purchased MRC in Dundee (Premier Screen service)
Procedure, shortened: as §1

[30] = target: T27, S6K1 (Homo sapiens, UniProt P23443)
T27 construct: MRC in Dundee (screening service)
Procedure, shortened: as §1

[31] = target: T28, SIK2 (Homo sapiens, UniProt Q9H0K1)
T28 construct: MRC in Dundee (screening service)
Procedure, shortened: as §1

[32] = target: T29, ULK2 (Homo sapiens, UniProt Q8IYT8)
T29 construct: MRC Dundee (screening service)
Procedure, shortened: as §1

[33] = target: T30, VEG-FR (Homo sapiens, UniProt P17948)
T30 construct: purchased MRC in Dundee (Premier Screen service)
Procedure, shortened: as §1

[34] = target: T31, p38a MAPK (Homo sapiens, UniProt Q16539)
T31 construct: purchased MRC in Dundee (Premier Screen service)
Procedure, shortened: as §1

[35] = target: T32, p38g MAPK (Homo sapiens, UniProt P53778)
T32 construct: purchased MRC Dundee, Premier Screen (contract screening service)
Procedure, shortened: as §1

T17 sequence (P80192 whole entry, species assumed): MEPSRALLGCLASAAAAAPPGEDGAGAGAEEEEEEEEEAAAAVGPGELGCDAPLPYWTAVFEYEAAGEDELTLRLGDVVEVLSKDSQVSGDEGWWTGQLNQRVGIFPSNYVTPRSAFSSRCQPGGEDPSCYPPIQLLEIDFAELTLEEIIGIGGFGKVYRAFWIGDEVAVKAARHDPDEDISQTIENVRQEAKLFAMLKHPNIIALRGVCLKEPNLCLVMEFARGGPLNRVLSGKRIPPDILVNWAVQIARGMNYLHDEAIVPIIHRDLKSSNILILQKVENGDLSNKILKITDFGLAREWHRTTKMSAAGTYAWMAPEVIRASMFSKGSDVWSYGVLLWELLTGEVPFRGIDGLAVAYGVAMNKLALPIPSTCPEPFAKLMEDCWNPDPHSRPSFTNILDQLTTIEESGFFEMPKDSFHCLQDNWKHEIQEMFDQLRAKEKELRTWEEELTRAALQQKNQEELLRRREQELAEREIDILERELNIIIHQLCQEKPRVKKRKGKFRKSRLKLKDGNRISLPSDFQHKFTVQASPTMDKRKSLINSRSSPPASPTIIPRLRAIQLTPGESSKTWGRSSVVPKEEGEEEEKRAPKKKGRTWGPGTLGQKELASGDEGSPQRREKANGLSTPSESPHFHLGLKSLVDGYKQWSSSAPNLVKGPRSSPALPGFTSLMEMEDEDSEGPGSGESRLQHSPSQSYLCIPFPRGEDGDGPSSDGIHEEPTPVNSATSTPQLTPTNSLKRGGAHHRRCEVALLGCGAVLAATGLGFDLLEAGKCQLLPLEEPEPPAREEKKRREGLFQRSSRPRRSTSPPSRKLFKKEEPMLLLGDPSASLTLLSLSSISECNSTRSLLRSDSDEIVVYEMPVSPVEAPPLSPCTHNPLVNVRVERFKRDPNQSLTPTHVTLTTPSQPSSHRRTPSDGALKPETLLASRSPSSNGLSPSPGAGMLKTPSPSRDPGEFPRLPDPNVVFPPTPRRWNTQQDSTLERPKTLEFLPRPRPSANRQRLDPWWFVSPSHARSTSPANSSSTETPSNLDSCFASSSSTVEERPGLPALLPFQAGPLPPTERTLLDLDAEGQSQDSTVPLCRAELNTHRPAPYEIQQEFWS
T15 sequence (P36507 whole entry, species assumed): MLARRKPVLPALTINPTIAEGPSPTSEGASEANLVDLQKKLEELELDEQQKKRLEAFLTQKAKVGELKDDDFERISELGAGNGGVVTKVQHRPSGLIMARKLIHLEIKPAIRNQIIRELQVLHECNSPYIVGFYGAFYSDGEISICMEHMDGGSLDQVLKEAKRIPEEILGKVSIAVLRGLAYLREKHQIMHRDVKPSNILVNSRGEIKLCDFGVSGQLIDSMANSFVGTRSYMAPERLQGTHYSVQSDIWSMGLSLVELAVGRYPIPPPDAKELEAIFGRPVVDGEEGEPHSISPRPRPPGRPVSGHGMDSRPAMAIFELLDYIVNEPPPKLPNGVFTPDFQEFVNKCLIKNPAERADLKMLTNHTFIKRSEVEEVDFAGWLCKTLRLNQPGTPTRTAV
T4 sequence (Q92630 whole entry, species assumed): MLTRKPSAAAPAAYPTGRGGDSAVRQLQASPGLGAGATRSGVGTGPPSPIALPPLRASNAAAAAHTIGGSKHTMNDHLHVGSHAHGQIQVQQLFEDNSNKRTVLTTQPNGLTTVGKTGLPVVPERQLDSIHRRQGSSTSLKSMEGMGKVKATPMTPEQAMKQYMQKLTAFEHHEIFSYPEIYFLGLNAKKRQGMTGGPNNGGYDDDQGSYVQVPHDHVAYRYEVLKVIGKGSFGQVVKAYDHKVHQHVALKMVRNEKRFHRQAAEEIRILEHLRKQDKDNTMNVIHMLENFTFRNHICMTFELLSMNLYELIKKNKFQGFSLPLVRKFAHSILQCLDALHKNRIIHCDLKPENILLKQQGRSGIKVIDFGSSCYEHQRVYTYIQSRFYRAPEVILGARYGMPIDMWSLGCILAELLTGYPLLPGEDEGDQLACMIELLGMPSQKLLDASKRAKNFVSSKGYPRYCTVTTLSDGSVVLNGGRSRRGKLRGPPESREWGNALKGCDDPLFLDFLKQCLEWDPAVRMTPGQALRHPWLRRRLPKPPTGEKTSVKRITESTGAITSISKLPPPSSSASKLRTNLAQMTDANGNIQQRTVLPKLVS
T26 sequence (P51812 whole entry, species assumed): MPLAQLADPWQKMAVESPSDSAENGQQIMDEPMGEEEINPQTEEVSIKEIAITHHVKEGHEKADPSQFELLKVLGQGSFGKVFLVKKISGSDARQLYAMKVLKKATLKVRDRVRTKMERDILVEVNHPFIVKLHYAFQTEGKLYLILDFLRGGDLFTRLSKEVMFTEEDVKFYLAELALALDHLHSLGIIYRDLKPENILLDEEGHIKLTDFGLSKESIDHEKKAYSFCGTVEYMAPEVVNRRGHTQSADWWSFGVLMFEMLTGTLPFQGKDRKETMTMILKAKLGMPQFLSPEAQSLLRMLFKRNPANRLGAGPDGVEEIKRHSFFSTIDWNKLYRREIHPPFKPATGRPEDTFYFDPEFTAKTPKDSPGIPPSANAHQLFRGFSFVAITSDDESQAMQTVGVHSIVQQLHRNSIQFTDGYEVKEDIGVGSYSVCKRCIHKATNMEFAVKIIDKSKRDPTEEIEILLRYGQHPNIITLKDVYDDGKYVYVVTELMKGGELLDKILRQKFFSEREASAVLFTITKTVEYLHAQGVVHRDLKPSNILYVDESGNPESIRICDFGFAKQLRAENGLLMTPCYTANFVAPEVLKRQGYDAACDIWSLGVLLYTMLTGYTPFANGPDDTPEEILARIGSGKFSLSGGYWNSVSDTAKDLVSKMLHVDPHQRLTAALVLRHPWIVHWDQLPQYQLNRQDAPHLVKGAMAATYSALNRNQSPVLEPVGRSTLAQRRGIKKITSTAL
MST4, sequence (Q9P289 whole entry, species assumed): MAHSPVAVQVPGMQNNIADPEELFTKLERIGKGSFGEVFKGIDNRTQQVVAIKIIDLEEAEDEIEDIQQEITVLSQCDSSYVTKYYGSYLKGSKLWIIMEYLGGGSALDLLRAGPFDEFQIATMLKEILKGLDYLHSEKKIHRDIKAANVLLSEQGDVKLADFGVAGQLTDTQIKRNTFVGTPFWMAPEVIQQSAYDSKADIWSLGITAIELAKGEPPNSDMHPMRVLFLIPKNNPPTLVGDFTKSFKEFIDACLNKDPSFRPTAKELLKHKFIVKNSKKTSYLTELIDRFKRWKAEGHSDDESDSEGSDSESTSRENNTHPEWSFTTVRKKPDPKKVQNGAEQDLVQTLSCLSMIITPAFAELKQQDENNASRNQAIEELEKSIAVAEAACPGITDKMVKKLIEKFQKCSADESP
IRAK1, sequence (P51617 whole entry, species assumed): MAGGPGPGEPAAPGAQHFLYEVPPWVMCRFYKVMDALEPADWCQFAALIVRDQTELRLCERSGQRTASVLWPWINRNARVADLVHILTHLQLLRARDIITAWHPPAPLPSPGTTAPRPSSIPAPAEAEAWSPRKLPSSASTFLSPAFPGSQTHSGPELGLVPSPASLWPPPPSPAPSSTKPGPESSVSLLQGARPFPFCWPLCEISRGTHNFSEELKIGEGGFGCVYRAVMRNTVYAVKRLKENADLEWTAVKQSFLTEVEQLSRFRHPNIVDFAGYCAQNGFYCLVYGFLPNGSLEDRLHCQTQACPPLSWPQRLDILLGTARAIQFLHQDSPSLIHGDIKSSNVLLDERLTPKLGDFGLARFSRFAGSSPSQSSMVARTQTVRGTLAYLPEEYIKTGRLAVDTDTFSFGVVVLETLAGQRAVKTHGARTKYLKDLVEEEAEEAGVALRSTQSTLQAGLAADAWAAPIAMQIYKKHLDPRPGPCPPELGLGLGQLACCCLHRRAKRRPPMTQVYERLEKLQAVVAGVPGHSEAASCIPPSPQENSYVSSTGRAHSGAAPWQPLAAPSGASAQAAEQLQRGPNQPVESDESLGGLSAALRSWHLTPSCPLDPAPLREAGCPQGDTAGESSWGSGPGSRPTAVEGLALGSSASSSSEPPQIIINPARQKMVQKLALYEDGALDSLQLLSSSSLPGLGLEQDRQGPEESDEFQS
T27 sequence (P23443 whole entry, species assumed): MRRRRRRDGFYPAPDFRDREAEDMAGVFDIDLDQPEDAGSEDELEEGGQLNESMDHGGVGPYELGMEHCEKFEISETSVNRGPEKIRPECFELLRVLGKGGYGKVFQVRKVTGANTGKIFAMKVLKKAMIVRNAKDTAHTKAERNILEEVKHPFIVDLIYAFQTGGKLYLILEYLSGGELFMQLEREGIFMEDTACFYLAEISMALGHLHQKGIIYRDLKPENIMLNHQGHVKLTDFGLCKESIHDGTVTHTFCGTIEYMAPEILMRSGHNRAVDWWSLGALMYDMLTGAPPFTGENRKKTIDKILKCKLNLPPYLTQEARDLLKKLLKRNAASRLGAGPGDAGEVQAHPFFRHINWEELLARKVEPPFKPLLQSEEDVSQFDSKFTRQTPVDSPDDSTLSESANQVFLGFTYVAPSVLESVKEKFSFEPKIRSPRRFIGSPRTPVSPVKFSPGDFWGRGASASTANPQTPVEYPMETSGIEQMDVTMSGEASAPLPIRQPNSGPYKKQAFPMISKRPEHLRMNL
T11 sequence (Q16644 whole entry, species assumed): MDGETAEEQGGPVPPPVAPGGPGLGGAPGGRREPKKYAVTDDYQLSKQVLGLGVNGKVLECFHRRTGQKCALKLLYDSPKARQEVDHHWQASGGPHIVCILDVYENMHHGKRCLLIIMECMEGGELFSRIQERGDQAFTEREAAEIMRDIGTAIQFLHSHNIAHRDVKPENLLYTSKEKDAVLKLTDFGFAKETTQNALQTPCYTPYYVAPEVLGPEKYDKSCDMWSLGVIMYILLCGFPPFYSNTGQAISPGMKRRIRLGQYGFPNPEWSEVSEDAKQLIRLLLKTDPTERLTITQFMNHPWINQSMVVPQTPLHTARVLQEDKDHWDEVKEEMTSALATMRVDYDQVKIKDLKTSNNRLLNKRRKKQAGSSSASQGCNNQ

O=C(Nc1cc(C(F)(F)F)cc(C(F)(F)F)c1)Nc1ccc(Br)cc1-c1nnn[nH]1 [SCO-101]
remaining activity at 10 µM [1]: 136%
remaining activity at 10 µM [2]: 78%
remaining activity at 10 µM [3]: 57%
remaining activity at 10 µM [4]: 78%
remaining activity at 10 µM [5]: 60%
remaining activity at 10 µM [6]: 101%
remaining activity at 10 µM [7]: 86%
remaining activity at 10 µM [8]: 93%
remaining activity at 10 µM [9]: 139%
remaining activity at 10 µM [10]: 115%
remaining activity at 10 µM [11]: 108%
remaining activity at 10 µM [12]: 85%
remaining activity at 10 µM [13]: 100%
remaining activity at 10 µM [14]: 105%
remaining activity at 10 µM [15]: 95%
remaining activity at 10 µM [16]: 94%
remaining activity at 10 µM [17]: 108%
remaining activity at 10 µM [18]: 98%
remaining activity at 10 µM [19]: 146%
remaining activity at 10 µM [20]: 117%
remaining activity at 10 µM [21]: 49%
remaining activity at 10 µM [22]: 83%
remaining activity at 10 µM [23]: 121%
remaining activity at 10 µM [24]: 108%
remaining activity at 10 µM [25]: 72%
remaining activity at 10 µM [26]: 49%
remaining activity at 10 µM [27]: 59%
remaining activity at 10 µM [28]: 101%
remaining activity at 10 µM [29]: 64%
remaining activity at 10 µM [30]: 92%
remaining activity at 10 µM [31]: 81%
remaining activity at 10 µM [32]: 95%
remaining activity at 10 µM [33]: 66%
remaining activity at 10 µM [34]: 63%
remaining activity at 10 µM [35]: 110%
